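Assay format: 96-well plates, 48-hour exposure. TGI: concentration producing complete growth inhibition.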 Bounds are passed on as bounds.

Among the test systems are ACHN renal; EKVX NSCLC; HCC-2998 colon; HCT-15 colon; HL-60(TB) leukemia; HOP-62 NSCLC; HS 578T breast; K-562 leukemia; LOX IMVI melanoma; M14 melanoma; MCF7 breast; MDA-MB-231 breast; MDA-MB-435; NCI/ADR-RES ovarian; OVCAR-8 ovarian; SF-295 CNS; SK-MEL-5 melanoma; SK-OV-3 ovarian; UACC-62 melanoma.
What all share (experiment): growth of human tumour cells (NCI), 48 h

On to `CCN(CC)CCC(=O)/C=C/c1ccccc1`, for which the TGI in the experiment with ACHN renal was 26.2 µM; with EKVX NSCLC it was 22.6 µM; with HCC-2998 colon it was 34.8 µM; with HCT-15 colon, 32 µM; with HL-60(TB) leukemia, over 100 µM; in the experiment on HOP-62 NSCLC, 54.5 µM. Also, the TGI in the experiment with HS 578T breast came to 39.9 µM; with K-562 leukemia, 13.6 µM; with LOX IMVI melanoma, 7.16 µM; in the experiment on M14 melanoma, 33 µM; with MCF7 breast, 10.6 µM; in the experiment with MDA-MB-231 breast it was 28.9 µM. Also, the TGI worked out at 23.2 µM with MDA-MB-435; 55.1 µM in the experiment with NCI/ADR-RES ovarian; 52.5 µM in the experiment with OVCAR-8 ovarian; 40.1 µM with SF-295 CNS; 44.8 µM with SK-MEL-5 melanoma.
`CN=c1nc2sc3c(c2c(NC(=S)NC)s1)CCCC3`: the TGI with ACHN renal, in the experiment on EKVX NSCLC, in the experiment on HCC-2998 colon, in the experiment with HCT-15 colon, in the experiment with HL-60(TB) leukemia and with HOP-62 NSCLC was over 100 µM each time. The TGI with HS 578T breast was 97.4 µM; in the experiment on K-562 leukemia, over 100 µM; with LOX IMVI melanoma, over 100 µM; in the experiment on MCF7 breast it was over 100 µM; in the experiment with MDA-MB-231 breast, over 100 µM; in the experiment with MDA-MB-435, over 100 µM. Further, the TGI with SF-295 CNS, in the experiment on SK-MEL-5 melanoma, with SK-OV-3 ovarian and with UACC-62 melanoma was over 100 µM throughout.
Take `O=C(O)c1ccc(Nc2c3ccccc3nc3ccccc23)cc1`: the TGI with EKVX NSCLC, in the experiment on HCC-2998 colon, with HCT-15 colon, with HL-60(TB) leukemia, in the experiment with HOP-62 NSCLC and in the experiment on K-562 leukemia was over 100 µM each time. Also, the TGI in the experiment on LOX IMVI melanoma, in the experiment on MCF7 breast, in the experiment on NCI/ADR-RES ovarian, in the experiment with OVCAR-8 ovarian, with SF-295 CNS and in the experiment on SK-MEL-5 melanoma was over 100 µM in each case. Besides, the TGI with SK-OV-3 ovarian and with UACC-62 melanoma was over 100 µM in each case.
Regarding `CCc1cc2c(oc3cc4ccccc4cc32)c(=O)[nH]1`, the TGI with ACHN renal, in the experiment with EKVX NSCLC, with HCC-2998 colon, in the experiment with HCT-15 colon, in the experiment with HL-60(TB) leukemia and in the experiment on HS 578T breast was over 10 µM throughout. The TGI in the experiment on LOX IMVI melanoma, in the experiment on M14 melanoma, with MDA-MB-231 breast, in the experiment with NCI/ADR-RES ovarian, in the experiment on OVCAR-8 ovarian and in the experiment with SF-295 CNS was over 10 µM throughout.
`COc1ccc(C2COc3cc(OC(C)=O)c(OC(C)=O)cc3C2)cc1` (configuration not stated): the TGI with EKVX NSCLC was found to be 51.1 µM; with HCC-2998 colon, 48.3 µM; in the experiment with HCT-15 colon, 52.9 µM; with HL-60(TB) leukemia, 7.32 µM; with HOP-62 NSCLC, 67.4 µM; in the experiment with K-562 leukemia it was 80 µM. The TGI in the experiment on LOX IMVI melanoma is 37.2 µM; with MCF7 breast, 62.7 µM; in the experiment with NCI/ADR-RES ovarian, 101 µM; with OVCAR-8 ovarian, 44.9 µM; in the experiment on SF-295 CNS, 38.7 µM; with SK-MEL-5 melanoma it was 48.2 µM. For the same molecule, the results for the TGI in the experiment on SK-OV-3 ovarian and in the experiment on UACC-62 melanoma were 82.3 µM and 43.5 µM, respectively.
As to `CCN(CC)CC1CCCCCCCCCCC1=O` (configuration not stated), the TGI in the experiment with ACHN renal, in the experiment on EKVX NSCLC, in the experiment on HCC-2998 colon, in the experiment with HCT-15 colon, in the experiment on HL-60(TB) leukemia and in the experiment on HOP-62 NSCLC was over 100 µM throughout. The TGI with K-562 leukemia, in the experiment with LOX IMVI melanoma, with M14 melanoma, in the experiment on OVCAR-8 ovarian, in the experiment with SF-295 CNS and in the experiment with SK-MEL-5 melanoma was over 100 µM throughout. Moreover, the TGI in the experiment on UACC-62 melanoma was over 100 µM.
For `CO/N=C/c1cc(OC)c(OC)c(OC)c1`, the TGI in the experiment on ACHN renal, in the experiment with EKVX NSCLC, in the experiment with HCC-2998 colon, in the experiment with HCT-15 colon, in the experiment with HL-60(TB) leukemia and with HOP-62 NSCLC was over 100 µM in each case. The TGI in the experiment on K-562 leukemia, in the experiment with LOX IMVI melanoma, in the experiment with M14 melanoma, with OVCAR-8 ovarian, in the experiment with SF-295 CNS and in the experiment on SK-MEL-5 melanoma was over 100 µM throughout. For the same molecule, the TGI with SK-OV-3 ovarian and in the experiment with UACC-62 melanoma was over 100 µM in each case.
Turning to `COc1ccc(N2C(=O)/C(=C(\C)c3cc4ccccc4oc3=O)N=C2c2cc([N+](=O)[O-])ccc2Cl)cc1`, the TGI in the experiment with ACHN renal is over 100 µM; in the experiment on EKVX NSCLC, over 100 µM; in the experiment with HCC-2998 colon it was over 100 µM; in the experiment with HL-60(TB) leukemia, 70.8 µM; in the experiment with HOP-62 NSCLC, over 100 µM; with K-562 leukemia, over 100 µM. Also, the TGI with LOX IMVI melanoma is over 100 µM; with M14 melanoma, 86.3 µM; in the experiment on OVCAR-8 ovarian, over 100 µM; in the experiment with SF-295 CNS, over 100 µM; with SK-MEL-5 melanoma it was over 100 µM; in the experiment on SK-OV-3 ovarian it was over 100 µM. In the experiment on UACC-62 melanoma, this molecule had a TGI of over 100 µM.
Regarding `COc1cc2cc3c4c(cc(OC)c(OC)c4c2cc1OC)CCN3C(=O)OCCN1CCNCC1`, the TGI in the experiment with ACHN renal was 28.3 µM; in the experiment on EKVX NSCLC, 28.6 µM; in the experiment with HCC-2998 colon, 29.8 µM; in the experiment on HCT-15 colon it was 29.2 µM; with HL-60(TB) leukemia it was 30 µM; with HOP-62 NSCLC it was 31.5 µM. Further, the TGI in the experiment on K-562 leukemia came out at 31.2 µM; with LOX IMVI melanoma, 26.6 µM; in the experiment on M14 melanoma, 27.9 µM; with OVCAR-8 ovarian it was 29.7 µM; with SF-295 CNS it was 28.2 µM; in the experiment with SK-MEL-5 melanoma, 28.2 µM. Also, the TGI in the experiment on SK-OV-3 ovarian was found to be 31.8 µM; in the experiment on UACC-62 melanoma, 28.1 µM.

The values above are taken from PubChem BioAssay (NCI).
